Data published in PMC12488667, “Orodispersible films containing chestnut shell phenolics for buccal delivery: a preclinical approach for oral mucositis prevention” (Frontiers in Medical Technology, 2025).
Marks after values point to notes of the source that are not given here.

Columns and labels:
TR146 cells = test: In vitro permeation, buccal model; assay type: in vitro ADME, human
Method: The in vitro permeability of the bioactive compounds present in OFs (n = 9) was determined using a co-culture model composed of TR146 ([31]). The extract and the CS-loaded OFs were added to the apical side of the model as a stock solution. […] The Transepithelial Electrical Resistance (TEER) of the model was evaluated before, during, and at the end of the permeability assay using an EVOM Epithelial Volthometer equipped with a chopstick electrode (World Precision Instruments, Sarasota, FL, USA).
(§1) The identification and quantification of the phenolic compounds present in the extract and the OFs, as well as the compounds that permeated from the OFs through in vitro and ex vivo assays, were conducted using an LC-ESI-LTQ-Orbitrap-HRMS equipment with an Accela chromatograph (Thermo Scientific, Hemel Hempstead, UK), a photodiode array detector, a quaternary pump, and a temperature-controlled autosampler coupled to a high-resolution LTQ Orbitrap Velos mass spectrometer (Thermo Scientific, Hemel Hempstead, UK) with an ESI source in negative mode ([33], [34]). The system was controlled using the Xcalibur v3.0 software (ThermoFisher Scientific, Hemel Hempstead, UK). Elution was performed on an Acquity™ UPLC® BEH C18 Column (2.1 × 100 mm, i.d., 1.7 µm particle size, Waters Corporation, Wexford, Ireland) maintained at 30°C.
(§2) Gradient elution was performed with water (A) and acetonitrile (B), both with 0.1% formic acid, with a flow rate and injection volume of 450 µl/min and 5 µl, respectively. The solvent gradient (v/v) of B [t (min), %B] was set as follows: (0, 0), (2, 0), (4, 30), (8, 100), (10, 100), (11, 0), and (14, 0). The samples were analyzed in the full scan mode at a resolving power of 30,000 and m/z 600. Data-dependent MS/MS events were acquired at a resolution of 15,000. Most intense ions were detected via the FTMS mode-triggered data-dependent acquisition mode. Ions that were not sufficiently intense for a data-dependent scan were explored in MSn mode. Precursors were fragmented by collision-induced dissociation using a C-trap with a normalized collision energy (35 V) and an activation time of 10 ms. […] Compounds whose theoretical [M–H]^− values exceeded the MS¹ acquisition range (m/z 100–600) were annotated based on characteristic MSⁿ fragment ions detected within the scan window.

[1] = Ex vivo permeation, Franz cells; assay type: in vitro ADME, porcine
Method: Porcine buccal mucosa was used to evaluate the buccal permeation of the phenolic compounds in the extract and the CS-loaded OFs (n = 9). The porcine buccal mucosa was purchased in a local butcher shop, not requiring ethical approval. A Franz cell assembly (9 mm clear jacketed Franz cell with a flat ground joint, 5 ml receptor volume, and permeation area of 0.785 cm^2; PermeGear, Inc., USA) was used. This experiment followed the methodology described by Rodrigues et al. ([32]). In the Franz apparatus, the porcine buccal mucosa was positioned with the cheek side facing the donor chamber, which contained 500 µl (1,000 μg/ml) of the CS extract or the CS-loaded OFs (two square films (2 × 2 cm) with […] of thickness were dissolved in 4 ml of artificial saliva; donor concentration was normalized to ensure equivalence between the extract solution and the film formulation). The receptor chamber was filled with 5 ml PBS, maintained at 37°C, and stirred continuously at 150 rpm. The volume was maintained through the experiments.
as §1, §2
Quantitative analysis was performed by using a validated chromatographic method ([38]).

| SMILES | Quantification of permeated compounds (TR146 cells; CS extract) | Quantification of permeated compounds (TR146 cells; CS-loaded OFs) | Permeation (%) (TR146 cells; from CS extract, 15 min) | Permeation (%) (TR146 cells; from CS extract, 30 min) | Permeation (%) (TR146 cells; from CS extract, 45 min) | Permeation (%) (TR146 cells; from CS extract, 60 min) | Permeation (%) (TR146 cells; from CS extract, 90 min) | Permeation (%) (TR146 cells; from CS extract, 120 min) | Permeation (%) (TR146 cells; from CS extract, 180 min) | Permeation (%) (TR146 cells; from CS extract, 240 min) | Permeation (%) (TR146 cells; from CS-loaded OFs, 15 min) | Permeation (%) (TR146 cells; from CS-loaded OFs, 45 min) | Permeation (%) (TR146 cells; from CS-loaded OFs, 60 min) | Permeation (%) (TR146 cells; from CS-loaded OFs, 90 min) | Permeation (%) (TR146 cells; from CS-loaded OFs, 120 min) | Permeation (%) (TR146 cells; from CS-loaded OFs, 180 min) | Quantification of permeated compounds ([1]; CS extract) | Quantification of permeated compounds ([1]; CS-loaded OFs) | Permeation (%) ([1]; from CS extract, 15 min) | Permeation (%) ([1]; from CS extract, 30 min) | also measured |
| --- | --- | --- | --- | --- | --- | --- | --- | --- | --- | --- | --- | --- | --- | --- | --- | --- | --- | --- | --- | --- | --- |
| O=C(O)C[C@H](C(=O)O)[C@@H](O)C(=O)O [Isocitric acid] | 222.23 ± 6.57^a mg/ml | 306.36 ± 13.65^b mg/g film | 0.04 ± 0.01^a % | 0.12 ± 0.03^a % | 0.15 ± 0.01^a % | 0.15 ± 0.01^a % | 0.24 ± 0.03^a % | 0.33 ± 0.02^a^,^b % | 0.54 ± 0.04^a^,^b % | 0.70 ± 0.01^b % | 0.15 ± 0.001^a % | 0.50 ± 0.06^a % | 0.62 ± 0.02^a % | 1.04 ± 0.01^b % | 1.40 ± 0.04^b % | 2.77 ± 0.01^b % | 2.20 ± 0.05^a mg/ml | 2.21 ± 0.16^a mg/g film | 15.13 ± 0.29^a % | 13.91 ± 1.51^a % | Permeation (%) (TR146 cells; from CS-loaded OFs, 30 min): 0.29 ± 0.05^a %; Permeation (%) (TR146 cells; from CS-loaded OFs, 240 min): 3.38 ± 0.06^b %; Permeation (%) ([1]; from CS-loaded OFs, 15 min): 19.05 ± 1.12^a %; Permeation (%) ([1]; from CS-loaded OFs, 30 min): 19.02 ± 0.90^a % |
| COc1cc(CC(=O)O)ccc1O [Homovanillic acid] | 0.58 ± 0.03^a mg/ml | 0.41 ± 0.01^a mg/g film | 93.51 ± 2.52^b % | 92.34 ± 1.55^b % | 92.13 ± 1.08^b % | 93.10 ± 0.94^b % | 94.47 ± 3.00^b % | 90.93 ± 2.74^b % | 91.20 ± 1.73^b % | 87.20 ± 2.06^a % | 106.01 ± 1.46^a % | 105.41 ± 0.99^a % | 103.62 ± 2.72^a % | 105.25 ± 2.83^a % | 109.09 ± 1.97^a % | 106.07 ± 2.67^a % | 2.03 ± 0.03^a mg/ml | 1.67 ± 0.03^a mg/g film | 99.88 ± 2.79^a % | 100.53 ± 3.72^a % | Permeation (%) (TR146 cells; from CS extract, 240 min, listed as homovanillic acid): 87.20%; Permeation (%) (TR146 cells; from CS-loaded OFs, 30 min): 104.89 ± 1.08^a %; Permeation (%) (TR146 cells; from CS-loaded OFs, 240 min): 110.05 ± 3.61^a %; Permeation (%) (TR146 cells; from CS-loaded OFs, 240 min, listed as homovanillic acid): 110.05% |
| O=C(O)c1ccc(O)c(O)c1 [Protocatechuic acid] | 0.53 ± 0.03^a mg/ml | 0.41 ± 0.02^a mg/g film | 39.32 ± 0.96^b % | 43.86 ± 1.62^b % | 42.03 ± 0.79^b % | 38.29 ± 0.86^b % | 37.52 ± 0.97^b % | 25.84 ± 1.03^a % | 40.40 ± 0.82^c % | 32.88 ± 0.87^b % | 89.42 ± 3.08^b % | 85.88 ± 2.01^b % | 94.08 ± 3.56^b % | 96.88 ± 1.43^b % | 106.06 ± 0.78^b % | 84.76 ± 2.51^b % | 0.97 ± 0.03^b mg/ml | 0.13 ± 0.01^a mg/g film | 19.05 ± 1.63^a % | 19.06 ± 0.61^a % | Permeation (%) (TR146 cells; from CS-loaded OFs, 240 min): 75.80 ± 0.91^a %; Permeation (%) (TR146 cells; from CS-loaded OFs, 240 min, listed as protocatechuic acid): 75.80% |
| O=C(O)CCC(=O)O [Succinic acid] | 1.60 ± 0.03^a mg/ml | 0.82 ± 0.01^a mg/g film | 20.51 ± 1.62^b % | 14.86 ± 2.71^a % | 16.09 ± 1.85^a % | 14.96 ± 0.46^a % | 19.54 ± 0.94^b % | 20.71 ± 1.67^b % | 21.62 ± 0.61^b % | 23.76 ± 1.68^b % | 44.20 ± 2.19^a % | 56.70 ± 1.23^b % | 57.45 ± 0.78^b % | 79.12 ± 4.41^c % | 88.23 ± 1.26^c % | 103.25 ± 1.42^d % | 1.26 ± 0.01^b mg/ml | 0.38 ± 0.01^a mg/g film | 60.67 ± 0.21^b % | 70.72 ± 3.61^b % | Permeation (%) (TR146 cells; from CS-loaded OFs, 30 min): 64.44 ± 1.03^c %; Permeation (%) (TR146 cells; from CS-loaded OFs, 240 min): 100.86 ± 1.75^d %; Permeation (%) (TR146 cells; from CS-loaded OFs, 240 min, listed as succinic acid): 100.86%; Permeation (%) ([1]; from CS-loaded OFs, 15 min): 14.00 ± 0.63^a %; Permeation (%) ([1]; from CS-loaded OFs, 30 min): 16.11 ± 0.72^a % |
| O=C(O)c1cccc(O)c1 [3-Hydroxybenzoic acid] | 1.52 ± 0.02^a mg/ml | 0.36 ± 0.03^a mg/g film | 13.57 ± 0.05^a % | 13.06 ± 0.03^a % | 14.09 ± 0.01^a % | 17.29 ± 0.01^a % | 16.17 ± 0.06^a % | 29.12 ± 0.19^b % | 16.86 ± 0.23^a % | 24.23 ± 0.45^b % |  |  |  |  |  |  | 1.18 ± 0.1^b mg/ml | 0.09 ± 0.02^a mg/g film | 5.91 ± 0.06^a % | 4.76 ± 0.02^a % | Permeation (%) ([1]; from CS-loaded OFs, 15 min): 45.86 ± 0.03^b %; Permeation (%) ([1]; from CS-loaded OFs, 30 min): 105.28 ± 3.37^b % |
